This data set in a line: Metabolic stability in hepatocytes. It counts as in vitro ADME. Particulars: cryopreserved human hepatocytes (suspension), 1×10^6 cells/mL; for half-life at 1 μM: 0-240 min, read-out: hHep t1/2; for CLint scaled at 1 μM: intrinsic clearance, read-out: hHep CLint. As for the experimental part: Test compounds are incubated in human hepatocytes and stability is assessed from the substrate […] approach. Test compounds are dissolved in dimethyl sulfoxide (DMSO) to create a 10 mM Stock, and then further diluted to create a 1000× Working Stock of 1 mM with DMSO in 96-well plates for test compounds and the positive control (midazolam). Vials containing cryopreserved hepatocytes are removed from the liquid nitrogen tank and immediately immersed in a 37° C. water bath. The vials are shaken gently until the contents had thawed and were then immediately emptied into 48 mL of pre-warmed HT Medium in a 50 mL conical tube. Cells remaining in the vial are resuspended with 1.0 mL of pre-warmed HT Medium and added to the conical tube. The tube is capped and then gently inverted several times to resuspend the hepatocytes. The cell suspension is centrifuged at 50×g at room temperature for 5 minutes and the supernatant discarded. The cell pellet is loosened by gently swirling the centrifuge tube and is re-suspended in 4 mL of warm Dulbecco's Modified Eagle medium (DMEM). Cell density is determined by a cell counter by Nexcelom, and DMEM medium is added to obtain a target density of 1×10^6 cells/mL. The assay is carried out in 96-well microtiter plates. Test Compounds are incubated at 1 μM with 1×10^6 cells/mL hepatocytes in DMEM for 0, 30, 60, 120 and 240 minutes. The incubation is carried out with gentle shaking at 37° C. under a humid atmosphere of 95% air/5% CO2. The volume of the incubation mixture is 37 μL with a final 0.1% DMSO. At each of the time points, the incubation is stopped by adding 150 μL quenching solution (100% acetonitrile, 0.1% formic acid containing bucetin as an internal standard for positive ESI mode). Subsequently, the mixtures are vortexed for 20 min and centrifuged at 4,000 RPM at 10° C. The supernatant (80 μL) is transferred to a clean 96-well plate and analyzed by LC-MS/MS. Midazolam at 1 μM with a final 0.1% DMSO is included as a positive control to verify assay performance. The percent parent remaining, intrinsic and predicted hepatic clearance and t1/2 are calculated. All samples are analyzed by LC-MS/MS using an AB Sciex API 4000 instrument, coupled to a Shimadzu LC-20AD LC Pump system. Separation is achieved using a Waters Atlantis T3 dC18 reverse phase HPLC column (20 mm×2.1 mm) at a flow rate of 0.5 mL/min. The mobile phase consisted of 0.1% formic acid in water (solvent A) and 0.1% formic acid in 100% acetonitrile (solvent B). Elution conditions are detailed below.
The ion optics of each test compound are optimized for their declustering potential (DP), […] (CE), collision-cell exit potential (CXP) and used in a selected ion monitoring experiment in the positive ion mode. The peak area ratio of each test compound to internal standard is then evaluated for stability. The extent of metabolism is calculated based on the disappearance of the test compound, compared to its initial concentration. The initial rates of clearance of the test compound are calculated using the linear regression plot of semi-log % remaining of the compound versus time. The elimination rate constant (k) of the linear regression plot is then used to determine t1/2 and the intrinsic clearance (CLint) using the following formula, where Chepatocyte (million cells/mL) is the cell density of the incubation: k=−slope t1/2=0.693/k CLint=k/Chepatocyte
Test compounds were incubated in human hepatocytes and stability was assessed from the substrate […] approach. Test compounds were dissolved in dimethyl sulfoxide (DMSO) to create a 10 mM Stock, and then further diluted to create a 1000× Working Stock of 1 mM with DMSO in 96-well plates for test compounds and the positive control (midazolam). Vials containing cryopreserved hepatocytes were removed from the liquid nitrogen tank and immediately immersed in a 37° C. water bath. […]

Each structure is given as a SMILES string.

Take `N#Cc1ccc(COc2cccc(N3CCN(Cc4nc5ccc(C(=O)O)cc5n4Cc4cncs4)[C@@H]4C[C@@H]43)n2)c(F)c1` (single isomer, unassigned) [Compound 1, 2-((5-(6-((4-cyano-2-fluorobenzyl)oxy)pyridin-2-yl)-2,5-diazabicyclo[4.1.0]heptan-2-yl)methyl)-1-(thiazol-5-ylmethyl)-1H-benzo[d]imidazole-6-carboxylic Acid]: the half-life at 1 μM was 3.36 h and the CLint scaled at 1 μM turned out to be 11.9 mL/min/kg.

In the case of `N#Cc1ccc(COc2cccc(N3CCN(Cc4nc5ccc(C(=O)O)cc5n4Cc4cncs4)[C@H]4C[C@H]43)n2)c(F)c1` (single isomer, unassigned) [Compound 2, 2-((5-(6-((4-Cyano-2-fluorobenzyl)oxy)pyridin-2-yl)-2,5-diazabicyclo[4.1.0]heptan-2-yl)methyl)-1-(thiazol-5-ylmethyl)-1H-benzo[d]imidazole-6-carboxylic Acid], the CLint scaled at 1 μM amounted to 5.01 mL/min/kg.

With `N#Cc1ccc(COc2cccc([C@H]3CCN(Cc4nc5ccc(C(=O)O)cc5n4Cc4cncs4)[C@@H]4C[C@H]34)n2)c(F)c1` (single isomer, unassigned) [Compound 4, 2-((5-(6-((4-Cyano-2-fluorobenzyl)oxy)pyridin-2-yl)-2-azabicyclo[4.1.0]heptan-2-yl)methyl)-1-(thiazol-5-ylmethyl)-1H-benzo[d]imidazole-6-carboxylic Acid], the half-life at 1 μM was 2.87 h and the CLint scaled at 1 μM is 14 mL/min/kg.

For the compound `N#Cc1ccc(COc2cccc([C@@H]3CCN(Cc4nc5ccc(C(=O)O)cc5n4Cc4cncs4)[C@@H]4C[C@@H]43)n2)c(F)c1` (single isomer, unassigned) [Compound 5, 2-((5-(6-((4-Cyano-2-fluorobenzyl)oxy)pyridin-2-yl)-2-azabicyclo[4.1.0]heptan-2-yl)methyl)-1-(thiazol-5-ylmethyl)-1H-benzo[d]imidazole-6-carboxylic Acid], the half-life at 1 μM stood at 5.37 h and the CLint scaled at 1 μM was 7.46 mL/min/kg.

As to `N#Cc1ccc(COc2cccc([C@H]3CCN(Cc4nc5ccc(C(=O)O)cc5n4Cc4cncs4)[C@H]4C[C@@H]34)n2)c(F)c1` (single isomer, unassigned) [Compound 14, 2-((5-(6-((4-Cyano-2-fluorobenzyl)oxy)pyridin-2-yl)-2-azabicyclo[4.1.0]heptan-2-yl)methyl)-1-(thiazol-5-ylmethyl)-1H-benzo[d]imidazole-6-carboxylic Acid], the half-life at 1 μM was 5.1 h and the CLint scaled at 1 μM stood at 7.86 mL/min/kg.

For the compound `N#Cc1ccc(COc2cccc([C@@H]3CCN(Cc4nc5ccc(C(=O)O)cc5n4Cc4cncs4)[C@H]4C[C@@H]34)n2)c(F)c1` (single isomer, unassigned) [Compound 15, 2-((5-(6-((4-Cyano-2-fluorobenzyl)oxy)pyridin-2-yl)-2-azabicyclo[4.1.0]heptan-2-yl)methyl)-1-(thiazol-5-ylmethyl)-1H-benzo[d]imidazole-6-carboxylic Acid], the half-life at 1 μM amounted to 4.33 h and the CLint scaled at 1 μM came out at 9.24 mL/min/kg.

As for `N#Cc1ccc(COc2cccc(N3CCN(Cc4nc5ccc(C(=O)O)cc5n4C[C@@H]4CCO4)[C@@H]4C[C@@H]43)n2)c(F)c1` (single isomer, unassigned) [Compound 43], the half-life at 1 μM worked out at 5.65 h and the CLint scaled at 1 μM was 7.09 mL/min/kg.

As for `CC1(c2ccc(C#N)cc2F)Oc2cccc(C3CCN(Cc4nc5ccc(C(=O)O)cc5n4Cc4cncs4)CC3)c2O1` (stereo not drawn) [Compound 18], the half-life at 1 μM came to 0.23 h and the CLint scaled at 1 μM is 17.5 mL/min/kg.

On to `N#Cc1ccc(COc2ccnc(N3CCN(Cc4nc5ccc(C(=O)O)cc5n4Cc4cncs4)[C@@H]4C[C@@H]43)n2)c(F)c1` [Compound 20, 2-((5-(4-((4-Cyano-2-fluorobenzyl)oxy)pyrimidin-2-yl)-2,5-diazabicyclo[4.1.0]heptan-2-yl)methyl)-1-(thiazol-5-ylmethyl)-1H-benzo[d]imidazole-6-carboxylic Acid], for which the half-life at 1 μM stood at 6.27 h and the CLint scaled at 1 μM amounted to 6.4 mL/min/kg.

With `CC1(c2ccc(C#N)cc2F)Oc2cccc(N3CCN(Cc4nc5ccc(C(=O)O)cc5n4CC4(C#N)CC4)C4CC43)c2O1` (stereo not drawn) [Compound 40, 2-((5-(2-(4-Cyano-2-fluorophenyl)-2-methylbenzo[d][1,3]dioxol-4-yl)-2,5-diazabicyclo[4.1.0]heptan-2-yl)methyl)-1-((1-cyanocyclopropyl)methyl)-1H-benzo[d]imidazole-6-carboxylic Acid], the half-life at 1 μM came out at 6.85 h and the CLint scaled at 1 μM worked out at 5.86 mL/min/kg.

As to `CCn1nncc1Cn1c(CN2CCN(c3cccc(OCc4ccc(C#N)cc4F)n3)[C@H]3C[C@H]32)nc2ccc(C(=O)O)cc21` [Compound 45, 2-((5-(6-((4-Cyano-2-fluorobenzyl)oxy)pyridin-2-yl)-2,5-diazabicyclo[4.1.0]heptan-2-yl)methyl)-1-((1-ethyl-1H-1,2,3-triazol-5-yl)methyl)-1H-benzo[d]imidazole-6-carboxylic Acid], the half-life at 1 μM was found to be 6.2 h and the CLint scaled at 1 μM is 6.46 mL/min/kg.

The values are drawn from patent US12410163B2, “Compounds as GLP-IR agonists” (Terns Pharmaceuticals, Inc., priority 2022, dated 2025).
